Data taken from PMC8945229, “Development and Biological Characterization of a Novel Selective TrkA Agonist with Neuroprotective Properties against Amyloid Toxicity” (Biomedicines, 2022).

How the values were obtained:
hippocampal brain slices = experiment: LTP electrophysiology in hippocampal brain slices treated with oligomeric Aβ; parameters: species or system mouse; details: oligomeric Aβ 5 μM, 500 nM, 3–5 h, vs slices treated only with Aβ
From the text: C57BL/6J mice were euthanized under halothane anesthesia and the brain was quickly dissected and placed in ice-cold oxygenated artificial cerebrospinal fluid (aCSF; 95% O2/5% CO2) containing (in mM): 125 NaCl, 3.5 KCl, 26 NaHCO3, 1 MgCl2 and 10 glucose (pH = 7.4, 315 mOsm/L). The brain was then placed onto the stage of a vibratome (Leica, VT1000S, Leica Biosystems GmbH, Wetzlar, Germany) and transverse slices containing the hippocampus were obtained. […] Field excitatory post-synaptic potentials (fEPSP) were amplified using an EXT-02F amplifier ([…]), digitized with ITC-18 (HEKA Elektronik GmbH, Reutlingern, Germany) and recorded in a computer running Windows 10 with IgorPro software (Wavemetrics Inc., Portland, OR, USA). […] The fEPSP amplitude was calculated from the minimum voltage value of the synaptic response (3–5 ms following stimulation) compared to the baseline voltage prior to stimulation. fEPSP recordings were acquired every 90″ for 10′ before TBS and continued for approximately 50′ following LTP induction. Recorded traces were analyzed using a custom-made script in the IgorPro software (Wavemetrics Inc., Portland, OR, USA).

PC12 cells = experiment: CellTox assay, serum deprivation-induced cell death; type: cell-based
Procedure: CellTox assay (G8742, Promega Corporation, Maddison, WI, USA) was used to assess survival of PC12 cells under serum deprivation conditions. PC12 cells were plated in 96-well plates, starved of serum for 4 h and subsequently treated with NGF (100 ng/mL) or ENT-A013 (500 nM) in the presence or absence of TrkA inhibitor GW441756 (20 μM, G-190, Alomone labs, Jerusalem, Israel) for 24 h. CellTox assay reagents and Hoescht (1:10,000, H3570, Invitrogen, Waltham, MA, USA) were added to each well for 30′ and cells were then imaged with a Zeiss AXIO Vert A1 fluorescent microscope (Zeiss, Jena, Germany). CellTox positive cells were normalized to total number of cells for each image.

TrkA = target: T1, TrkA (Rattus norvegicus, UniProt P35739); experiment: TrkA phosphorylation in PC12 cells (IP with TrkA antibody, Western blot against phosphorylated Tyrosine); type: cell-based
T1 construct: we used PC12 cells, a cell line that express TrkA and p75^NTR; host or cells: PC12
T1 sequence (P35739 33-799): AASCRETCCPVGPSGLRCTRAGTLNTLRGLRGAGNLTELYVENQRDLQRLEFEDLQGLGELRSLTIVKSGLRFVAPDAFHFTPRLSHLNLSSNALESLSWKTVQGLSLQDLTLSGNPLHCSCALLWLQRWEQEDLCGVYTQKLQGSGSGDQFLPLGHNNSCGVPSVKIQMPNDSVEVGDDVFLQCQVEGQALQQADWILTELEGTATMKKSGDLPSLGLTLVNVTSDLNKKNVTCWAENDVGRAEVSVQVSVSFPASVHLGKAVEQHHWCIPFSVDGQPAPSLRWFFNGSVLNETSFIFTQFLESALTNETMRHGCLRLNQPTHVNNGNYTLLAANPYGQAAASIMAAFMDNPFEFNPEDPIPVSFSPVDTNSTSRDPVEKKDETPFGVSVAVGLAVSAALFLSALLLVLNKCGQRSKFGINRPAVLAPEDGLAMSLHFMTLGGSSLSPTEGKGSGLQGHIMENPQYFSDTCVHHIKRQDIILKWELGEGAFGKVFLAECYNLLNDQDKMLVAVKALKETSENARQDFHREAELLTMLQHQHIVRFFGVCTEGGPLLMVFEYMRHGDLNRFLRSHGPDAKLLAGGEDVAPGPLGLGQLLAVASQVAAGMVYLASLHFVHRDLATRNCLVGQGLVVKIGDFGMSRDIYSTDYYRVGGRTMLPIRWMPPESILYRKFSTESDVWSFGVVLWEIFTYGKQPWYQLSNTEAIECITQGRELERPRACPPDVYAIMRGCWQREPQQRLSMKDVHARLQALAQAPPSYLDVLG
Procedure: For immunoprecipitation experiments PC12 or HEK293T, cells were used when at 70–80% confluent. […] Cells were then lysed in Pierce™ IP Lysis Buffer (87788, Thermo Fischer Scientific, Waltham, MA, USA) containing proteases (539138, Calbiochem, Darmstadt, Germany) and phosphatase inhibitors (524629, Calbiochem, Darmstadt, Germany). Lysates were then immunoprecipitated overnight at 4 °C with TrkA antibody (1:100, 06-574, Sigma-Aldrich, St. Louis, MO, USA) (Table S1) or p75^NTR antibody (1:100, ab6172, Abcam plc., Cambridge, UK) followed by 4 h incubation with protein G-plus agarose beads (sc-2002, Santa Cruz Biotechnology, Inc., Dallas, TX, USA). Beads were then collected, washed 3X with lysis buffer, resuspended in SDS loading buffer and subjected to Western blot against phosphorylated Tyrosine (1:1000, BAM1676, R&D Systems, Inc., Minneapolis, MN, USA) or Traf6 antibody (1:2000, ab33915, Abcam, plc., Cambridge, UK). Whole cell lysates were subjected to Western blot against TrkA (1:1000, 06-574, Sigma-Aldrich, St. Louis, MO, USA), phosphorylated TrkB (1:1000, ABN1381, Sigma-Aldrich, St. Louis, MO, USA), phosphorylated TrkC (1:1000, STJ90960, St John’s Laboratory, Ltd., London, UK), TrkB (1:1000, 07-225-I, Sigma-Aldrich, St. Louis, MO, USA), TrkC (1:1000, C44H5, Cell Signaling Technology, Danvers, MA, USA), p75 (1:1000, 839701, Biolegend, Inc., San Diego, CA, USA), Traf6 (1:2000, ab33915, Abcam, plc., Cambridge, UK) phosphorylated Akt (1:1000, 9721S, Cell Signaling Technology, Danvers, MA, USA), phosphorylated Erk1/2 (1:1000, 9101S, Cell Signaling Technology, Danvers, MA, USA), total Akt (1:1000, 4691S Cell Signaling Technology, Danvers, MA, USA) and total Erk1/2 (1:1000, 4695S, Cell Signaling Technology, Danvers, MA, USA).

CC12CCC(O)CC1=CCC1C2CCC2(C)C1CCC21CC1C=CBr [ENT-A013, (2′R,3S,17S)-2′-(2-Bromovinyl)-5-Androstene-17,1′-Cyclopropan-3-ol]
synaptic potentiation after TBS (in words) (hippocampal brain slices): significantly increased synaptic potentiation | IC50 (PC12 cells; Rattus norvegicus, PC-12, serum deprivation, CellTox, read-out: IC50 (anti-apoptotic dose–response)): 167 nM | CellTox positive cells normalized to total number of cells (PC12 cells; serum deprivation, 24 h, 500 nM): 0.11 ± 0.01 | time TrkA phosphorylation is sustained after treatment (TrkA; PC12 cells, 10, 30 or 60′ treatment): up to 1 hr | TrkA phosphorylation (TrkA; PC12 cells, compound 500 nM or NGF 100 ng/mL, 30′): 2.05 ± 0.21 % of control FC
